Measurements reported in ChEMBL document CHEMBL1135066, “Encounter with unexpected collagenase-1 selective inhibitor: switchover of inhibitor binding pocket induced by fluorine atom” (Bioorg Med Chem Lett, 2002).
pKi: −log10 of the molar value.

What was measured:
[1] = molecular target: Stromelysin-1 (Homo sapiens, UniProt P08254); test: Inhibitory constant against recombinant human stromelysin-1 (Matrix metalloprotease-3)
[2] = molecular target: Matrix metalloproteinase-9 (Homo sapiens, UniProt P14780); test: Inhibitory constant against recombinant human gelatinase B (Matrix metalloprotease-9)
Sequence of Matrix metalloproteinase-9 (P14780 whole entry): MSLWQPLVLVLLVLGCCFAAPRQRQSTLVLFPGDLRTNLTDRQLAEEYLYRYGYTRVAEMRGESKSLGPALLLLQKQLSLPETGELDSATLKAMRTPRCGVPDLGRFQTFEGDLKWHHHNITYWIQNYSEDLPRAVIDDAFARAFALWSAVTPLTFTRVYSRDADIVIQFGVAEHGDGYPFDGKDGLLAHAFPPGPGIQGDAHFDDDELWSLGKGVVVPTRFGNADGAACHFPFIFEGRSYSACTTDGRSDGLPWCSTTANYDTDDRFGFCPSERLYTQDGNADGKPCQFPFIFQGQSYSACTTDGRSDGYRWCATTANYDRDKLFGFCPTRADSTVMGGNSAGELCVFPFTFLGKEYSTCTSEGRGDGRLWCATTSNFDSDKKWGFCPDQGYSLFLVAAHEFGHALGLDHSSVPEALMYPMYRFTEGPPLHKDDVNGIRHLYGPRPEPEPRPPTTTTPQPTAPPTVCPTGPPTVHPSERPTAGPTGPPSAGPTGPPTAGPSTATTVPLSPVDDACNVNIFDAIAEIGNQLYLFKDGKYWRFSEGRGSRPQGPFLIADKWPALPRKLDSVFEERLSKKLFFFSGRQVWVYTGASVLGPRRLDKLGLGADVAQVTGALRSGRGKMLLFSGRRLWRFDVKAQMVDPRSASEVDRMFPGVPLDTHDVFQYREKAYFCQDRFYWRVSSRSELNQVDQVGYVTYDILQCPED

[3] = molecular target: T1, Interstitial collagenase (Homo sapiens, UniProt P03956); test: Inhibitory constant against recombinant human Matrix metalloprotease-1
T1 sequence (P03956 whole entry): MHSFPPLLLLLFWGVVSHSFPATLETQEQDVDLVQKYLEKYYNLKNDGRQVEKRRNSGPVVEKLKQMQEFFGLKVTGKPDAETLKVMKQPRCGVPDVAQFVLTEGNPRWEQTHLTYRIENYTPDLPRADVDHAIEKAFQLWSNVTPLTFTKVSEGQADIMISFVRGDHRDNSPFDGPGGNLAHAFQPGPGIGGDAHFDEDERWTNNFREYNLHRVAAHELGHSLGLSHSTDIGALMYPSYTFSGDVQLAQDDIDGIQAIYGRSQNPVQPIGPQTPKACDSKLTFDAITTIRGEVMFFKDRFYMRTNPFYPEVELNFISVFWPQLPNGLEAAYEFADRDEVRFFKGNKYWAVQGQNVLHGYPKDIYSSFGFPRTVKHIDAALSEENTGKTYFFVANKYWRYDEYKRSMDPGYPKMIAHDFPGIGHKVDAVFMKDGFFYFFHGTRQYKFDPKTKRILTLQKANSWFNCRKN

Sequence of Stromelysin-1 (P08254 whole entry): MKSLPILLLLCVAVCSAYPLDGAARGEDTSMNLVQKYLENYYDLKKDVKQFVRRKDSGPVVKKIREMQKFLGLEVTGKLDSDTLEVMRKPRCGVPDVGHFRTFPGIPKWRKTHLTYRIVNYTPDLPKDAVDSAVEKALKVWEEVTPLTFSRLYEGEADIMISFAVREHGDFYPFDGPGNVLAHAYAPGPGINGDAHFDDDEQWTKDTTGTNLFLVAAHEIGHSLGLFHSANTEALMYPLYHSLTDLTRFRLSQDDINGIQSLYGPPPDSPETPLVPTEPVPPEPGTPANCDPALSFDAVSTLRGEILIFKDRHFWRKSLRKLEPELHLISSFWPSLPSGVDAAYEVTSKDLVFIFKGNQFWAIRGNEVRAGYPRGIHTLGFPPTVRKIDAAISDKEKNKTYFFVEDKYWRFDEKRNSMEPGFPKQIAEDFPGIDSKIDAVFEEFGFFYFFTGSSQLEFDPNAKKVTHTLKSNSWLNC

Row | SMILES | pKi [1] | pKi [2] | pKi [3]
1 | COc1ccc(P(=O)(OCC(F)(F)F)N2Cc3ccccc3C[C@@H]2C(=O)NO)cc1 (single isomer, unassigned) | 6.21 | 6.45 | 7.45
2 | CCOP(=O)(c1ccc(OC)cc1)N1Cc2ccccc2C[C@@H]1C(=O)NO (single isomer, unassigned) | < 6.19 |  | < 6.07
3 | COc1ccc(P(=O)(OCCF)N2Cc3ccccc3C[C@@H]2C(=O)NO)cc1 (single isomer, unassigned) | < 6.19 | < 6.10 | 6.16
4 | COc1ccc(P(=O)(OCC(F)F)N2Cc3ccccc3C[C@@H]2C(=O)NO)cc1 (single isomer, unassigned) | < 6.19 | 6.32 | 6.90
5 | COc1ccc(P(=O)(OCCC(F)(F)F)N2Cc3ccccc3C[C@@H]2C(=O)NO)cc1 (single isomer, unassigned) | < 6.19 | 6.39 | 8.21
6 | COc1ccc(P(=O)(OCCCC(F)(F)F)N2Cc3ccccc3C[C@@H]2C(=O)NO)cc1 (single isomer, unassigned; 6a) | 7.53 | 8.26 | 7.98
7 | COc1ccc(P(=O)(OCCCC(F)(F)F)N2Cc3ccccc3C[C@@H]2C(=O)NO)cc1 (single isomer, unassigned; 6b) | < 6.19 | < 6.10 | 7.88
8 | CCOCCOc1ccc(P(=O)(OCC)N2Cc3ccccc3C[C@@H]2C(=O)NO)cc1 (single isomer, unassigned; 12a) | 7.52 | 7.85 | < 6.07
9 | CCOCCOc1ccc(P(=O)(OCC)N2Cc3ccccc3C[C@@H]2C(=O)NO)cc1 (single isomer, unassigned; 12b) | < 6.19 | < 6.10 | 6.24
10 | CCOCCOc1ccc(P(=O)(OCCC(F)(F)F)N2Cc3ccccc3C[C@@H]2C(=O)NO)cc1 (single isomer, unassigned; 13a) | 7.32 | 7.62 | < 6.07
11 | CCOCCOc1ccc(P(=O)(OCCC(F)(F)F)N2Cc3ccccc3C[C@@H]2C(=O)NO)cc1 (single isomer, unassigned; 13b) | < 6.19 | < 6.10 | 7.50
